Assay results taken from US20260184707A1, “PHARMACEUTICAL COMPOUNDS FOR THE TREATMENT OF COMPLEMENT MEDIATED DISORDERS” (ALEXION PHARMACEUTICALS, INC., priority 2022, published 2026).

What follows are molecules tested against T1, Human complement C1s enzyme (Homo sapiens, UniProt P09871) (assay: Human C1s enzyme assay). Settings: human complement C1s enzyme 1.16 nM, substrate Z-L-Lys-SBzl, A405; read-out: IC50 (Stars).
T1 construct: purified from human serum, Complement Technology, Inc; purchased Complement Technology, Inc; host or cells: human serum (plasma-derived native protein)
T1 sequence (P09871 438-688 limits assumed): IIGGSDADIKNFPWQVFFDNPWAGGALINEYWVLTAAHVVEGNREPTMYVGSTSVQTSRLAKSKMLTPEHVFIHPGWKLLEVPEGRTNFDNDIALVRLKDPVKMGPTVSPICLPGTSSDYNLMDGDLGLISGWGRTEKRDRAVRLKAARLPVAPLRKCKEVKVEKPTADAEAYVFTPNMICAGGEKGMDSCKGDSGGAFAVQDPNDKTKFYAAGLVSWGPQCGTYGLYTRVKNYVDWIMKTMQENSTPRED
T1 sequence (P09871 16-437 partner limits assumed): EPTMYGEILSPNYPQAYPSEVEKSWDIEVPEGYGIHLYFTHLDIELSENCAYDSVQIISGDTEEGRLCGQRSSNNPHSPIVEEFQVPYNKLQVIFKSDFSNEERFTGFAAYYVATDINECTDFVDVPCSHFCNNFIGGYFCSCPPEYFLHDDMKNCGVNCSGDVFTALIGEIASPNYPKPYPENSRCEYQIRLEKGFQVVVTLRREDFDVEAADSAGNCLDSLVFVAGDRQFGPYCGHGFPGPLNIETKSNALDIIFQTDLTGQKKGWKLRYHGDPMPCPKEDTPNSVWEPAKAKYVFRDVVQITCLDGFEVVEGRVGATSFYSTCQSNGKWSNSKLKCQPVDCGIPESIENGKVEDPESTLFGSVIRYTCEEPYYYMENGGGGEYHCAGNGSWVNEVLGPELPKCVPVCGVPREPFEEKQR
Assay type: biochemical
Outline: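 Serum-purified human C1s (1.16 nM final) preincubated 5 min at room temperature with compound in 50 mM Tris, 1 M NaCl, pH 7.5. Z-L-Lys-SBzl and DTNB added at 100 μM each; A405 recorded every 30 s. IC50 from nonlinear regression of reaction rates versus compound concentration.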

| SMILES | IC50 [nM] |
| --- | --- |
| O=C(Cn1c(-c2ccccc2)ncc(NC(=O)NCC2CCCCC2)c1=O)NCc1cc2cnccc2[nH]1 [Compound 76, N-((1H-pyrrolo[3,2-c]pyridine-2-yl)methyl)-2-(5-(3-(cyclohexylmethyl)ureido)-6-oxo-2-phenylpyrimidin-1(6H)-yl)acetamide] | 100 to 1000 |
| COCc1ncc(N[C@H](C)c2ccc3oc4ccccc4c3c2)c(=O)n1CC(=O)NCc1cc2cnccc2[nH]1 [Compound 365, (R)—N-((1H-pyrrolo[3,2-c]pyridine-2-yl)methyl)-2-(5-((1-(dibenzo[b,d]furan-2-yl)ethyl)amino)-2-(methoxymethyl)-6-oxopyrimidin-1(6H)-yl)acetamide] | 100 to 1000 |
| O=C(Cn1cncc(NC(=O)c2cnc(-c3ccccc3)o2)c1=O)NCc1cc2cnccc2[nH]1 [Compound 405, N-(1-(2-(((1H-pyrrolo[3,2-c]pyridin-2-yl)methyl)amino)-2-oxoethyl)-6-oxo-1,6-dihydro-pyrimidin-5-yl)-2-phenyl-oxazole-5-carboxamide] | < 100 |
| O=C(Cn1c(-c2ccccc2F)ncc(N[C@H]2CCc3ccccc32)c1=O)NCc1cc2cnccc2[nH]1 [Compound 394, (S)—N-((1H-pyrrolo[3,2-c]pyridine-2-yl)methyl)-2-(5-((2,3-dihydro-1H-inden-1-yl)amino)-2-(2-fluorophenyl)-6-oxopyrimidin-1(6H)-yl)acetamide] | < 100 |
| COc1ccc(-c2ccc(C(=O)Nc3cnc(-c4ccccc4)n(CC(=O)NCc4cc5cnccc5[nH]4)c3=O)cc2)cc1 [Compound 98, N-(1-(2-(((1H-pyrrolo[3,2-c]pyridin-2-yl)methyl)amino)-2-oxoethyl)-6-oxo-2-phenyl-1,6-dihydropyrimidin-5-yl)-4′-methoxy-[1,1′-biphenyl]-4-carboxamide] | < 100 |
| O=C(Cn1c(-c2ccccc2)ncc(-c2nc3ccc(Oc4ccccc4)cc3[nH]2)c1=O)NCc1cc2cnccc2[nH]1 [Compound 81, N-((1H-pyrrolo[3,2-c]pyridin-2-yl)methyl)-2-(6-oxo-5-(6-phenoxy-1H-benzo[d]imidazol-2-yl)-2-phenylpyrimidin-1(6H)-yl)acetamide] | > 1000 |
| C[C@@H](Nc1ncc(N2CCCCC2)n(CC(=O)NCc2cc3cnccc3[nH]2)c1=O)c1ccc(-c2ccccc2F)cc1 [Compound 423, (R)-N-((1H-pyrrolo[3,2-c]pyridin-2-yl)methyl)-2-(3-((1-(2′-fluoro-[1,1′-biphenyl]-4-yl)ethyl)amino)-2-oxo-6-(piperidin-1-yl)pyrazin-1(2H)-yl)acetamide] | < 100 |

Results, then the molecule that gave them:

| IC50 [nM] | SMILES |
| --- | --- |
| < 100 | CO[C@@H]1CO[C@H]2[C@@H]1OC[C@H]2Oc1ccc(-c2ncc(N[C@H](C)c3ccc4oc5ccccc5c4c3)c(=O)n2CC(=O)NCc2cc3cnccc3[nH]2)cc1 [Compound 238, N-((1H-pyrrolo[3,2-c]pyridin-2-yl)methyl)-2-(5-(((R)-1-(dibenzo[b,d]furan-2-yl)ethyl)-amino)-2-(4-(((3R,3aR,6R, 6aR)-6-methoxyhexahydrofuro [3,2-b]furan-3-yl)oxy)phenyl)-6-oxopyrimidin-1(6H)-yl)acet-amide] |
| < 100 | O=C(Cn1c(-c2ccco2)ncc(NCc2ccc3oc4ccccc4c3c2)c1=O)NCc1cc2cnccc2[nH]1 [Compound 232, N-((1H-pyrrolo[3,2-c]pyridin-2-yl)methyl)-2-(5-((dibenzo [b,d]furan-2-ylmethyl)amino)-2-(furan-2-yl)-6-oxopyrimidin-1(6H)-yl)acetamide] |
| < 100 | O=C(Cn1cncc(NCc2ccc3oc4ccccc4c3c2)c1=O)NCc1cc2cnccc2[nH]1 [Compound 246, 2-[5-(Dibenzofuran-2-ylmethylamino)-6-oxo-pyrimidin-1-yl]-N-(1H-pyrrolo[3,2-c]pyridine-2-ylmethyl)acetamide] |
| < 100 | O=C(Cn1c(-c2ccccc2)ncc(NCc2ccc3c(c2)oc2ccccc23)c1=O)NCc1cc2cnccc2[nH]1 [Compound 26, N-((1H-pyrrolo[3,2-c]pyridin-2-yl)methyl)-2-(5-((dibenzo[b,d]furan-3-ylmethyl)amino)-6-oxo-2-phenylpyrimidin-1(6H)-yl)acetamide] |
